ChEMBL document CHEMBL1201862, “PubChem BioAssay data set” (2004)
Activity calls are given as the source filed them.

Experiments:
[1] = biological target: T1, Apoptotic protease-activating factor 1 (Homo sapiens, UniProt O14727); test: SAR analysis of small molecule Activators of Apaf-1 in a Fluorescent assay.; format: functional; conditions: read-out: EC50_Mean;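 further: caspase-3 cleavage of fluorogenic Rh110 DEVD substrate downstream of apoptosome activation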
T1 sequence (O14727 whole entry): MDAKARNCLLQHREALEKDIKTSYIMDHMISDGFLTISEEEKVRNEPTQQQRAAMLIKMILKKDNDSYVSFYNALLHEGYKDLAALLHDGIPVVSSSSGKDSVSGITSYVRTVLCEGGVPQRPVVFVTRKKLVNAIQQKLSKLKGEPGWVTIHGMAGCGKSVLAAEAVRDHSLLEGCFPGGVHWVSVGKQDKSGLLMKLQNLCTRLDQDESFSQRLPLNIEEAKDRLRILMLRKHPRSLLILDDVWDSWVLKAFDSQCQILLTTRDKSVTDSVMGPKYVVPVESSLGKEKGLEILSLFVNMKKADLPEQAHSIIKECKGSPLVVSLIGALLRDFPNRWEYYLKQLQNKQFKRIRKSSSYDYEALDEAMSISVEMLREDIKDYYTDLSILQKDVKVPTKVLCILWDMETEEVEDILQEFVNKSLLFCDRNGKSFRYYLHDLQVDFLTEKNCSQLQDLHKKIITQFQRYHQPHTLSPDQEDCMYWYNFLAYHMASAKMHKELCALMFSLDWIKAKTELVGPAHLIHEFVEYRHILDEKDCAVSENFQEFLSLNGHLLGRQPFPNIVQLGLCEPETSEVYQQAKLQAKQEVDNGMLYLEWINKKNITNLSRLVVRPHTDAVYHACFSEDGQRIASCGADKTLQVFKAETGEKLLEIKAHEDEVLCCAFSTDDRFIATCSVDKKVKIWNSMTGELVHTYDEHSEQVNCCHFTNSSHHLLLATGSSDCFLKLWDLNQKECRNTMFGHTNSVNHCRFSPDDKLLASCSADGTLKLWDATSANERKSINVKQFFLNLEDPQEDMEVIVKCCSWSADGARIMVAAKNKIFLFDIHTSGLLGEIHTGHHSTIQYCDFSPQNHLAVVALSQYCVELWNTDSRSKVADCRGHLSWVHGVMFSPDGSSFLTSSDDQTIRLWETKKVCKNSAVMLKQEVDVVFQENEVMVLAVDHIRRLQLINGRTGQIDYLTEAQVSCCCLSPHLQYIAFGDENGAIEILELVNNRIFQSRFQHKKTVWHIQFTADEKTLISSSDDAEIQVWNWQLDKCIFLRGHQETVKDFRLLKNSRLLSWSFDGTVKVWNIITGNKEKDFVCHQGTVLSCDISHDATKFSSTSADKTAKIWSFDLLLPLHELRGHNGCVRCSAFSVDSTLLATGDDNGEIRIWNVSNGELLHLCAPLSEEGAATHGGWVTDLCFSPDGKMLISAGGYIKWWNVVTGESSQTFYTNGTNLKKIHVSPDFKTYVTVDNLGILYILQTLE

[2] = biological target: ALK tyrosine kinase receptor (Homo sapiens, UniProt Q9UM73); format: functional;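 further: ALK tested as one member of a kinase panel screen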
[3] = biological target: Cyclin-dependent kinase 19 (Homo sapiens, UniProt Q9BWU1); test: Navigating the Kinome. Panel member name: CDC2L6; format: functional
[4] = biological target: Adenosylmethionine-8-amino-7-oxononanoate aminotransferase (Mycobacterium tuberculosis, UniProt P9WQ81); test: Mycobacterium tuberculosis BioA enzyme inhibitor Measured in Biochemical System Using Plate Reader - 2163-02_Inhibitor_Dose_CherryPick_Activity.; format: functional, Mycobacterium tuberculosis UT205
[5] = off-target signal loss in HeLa-CEM21 co-culture – HeLa F-luc CTL cells, cherry-picked, counter-screen for HIV-1 Env fusion inhibitor project, dose response (AID 652040); format: functional, cell-based;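 further: potency for signal decrease marking cytotoxic or nonspecific inhibition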
[6] = inhibitors of HIV Env-driven cell fusion, dose response, cherry-pick (AID 652057); format: functional, cell-based
[7] = inhibitors of clade B AD8 Env fusion, dose response, cell-based, cherry-pick (AID 652062); format: functional;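 further: luciferase signal from cell-cell fusion driven by HIV-1 clade B AD8 Env; potency is for inhibitors of fusion seen as a drop in luminescence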
[8] = ZM109 Env clade C HIV-1 fusion inhibitors, dose response, HeLa effector, CEM target cells, luciferase, cherry-pick (AID 652058); format: functional, cell-based
[9] = CEM21 lymphoblast cell cytotoxicity, dose response, cytotoxicity control for viral fusion inhibitor project, CellTiter-Glo luminescence, cherry-picked (AID 652042); format: functional, cell-based;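 further: potency for signal decrease meaning cytotoxicity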
[10] = LMP1-driven NF-kB reporter inhibition, dose response, cell-based, luciferase reporter, luminescence, dry powder, set 2 (AID 624376); format: functional
[11] = biological target: Tyrosine-protein phosphatase non-receptor type 5 (Homo sapiens, UniProt P54829); test: STEP phosphatase inhibitors, confirmation, biochemical, fluorescence intensity, uHTS hits (AID 602372); format: functional; conditions: read-out: IC50_Mean
[12] = biological target: Tyrosine-protein phosphatase non-receptor type 11 (Homo sapiens, UniProt Q06124); test: SHP2 phosphatase inhibition, dose response, selectivity assay for STEP inhibitor project, biochemical (AID 602367); format: functional; conditions: read-out: IC50_Mean
[13] = biological target: T2, Trace amine-associated receptor 1 (Homo sapiens, UniProt Q96RJ0); test: Counterscreen for agonists of the human trace amine associated receptor 1 (hTAAR1): Fluorescence-based cell-based high throughput dose response assay to identify hTAAR1 agonist that also desensitize TAAR1 receptor response.; format: functional
T2 sequence (Q96RJ0 whole entry): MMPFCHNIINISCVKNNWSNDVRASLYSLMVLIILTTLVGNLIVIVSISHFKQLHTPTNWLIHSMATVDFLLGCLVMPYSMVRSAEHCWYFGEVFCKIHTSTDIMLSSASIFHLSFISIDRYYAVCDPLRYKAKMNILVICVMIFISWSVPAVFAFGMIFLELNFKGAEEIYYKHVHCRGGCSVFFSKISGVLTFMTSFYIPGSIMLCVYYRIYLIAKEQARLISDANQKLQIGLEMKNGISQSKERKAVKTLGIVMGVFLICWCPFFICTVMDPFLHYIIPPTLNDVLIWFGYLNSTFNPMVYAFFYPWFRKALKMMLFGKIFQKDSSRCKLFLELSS

[14] = biological target: Dual specificity protein phosphatase 3 (Homo sapiens, UniProt P51452); test: VHR phosphatase inhibition, dose response, selectivity assay for STEP inhibitor project, biochemical (AID 602374); format: functional; conditions: read-out: IC50_Mean
cells [15] = format: functional, cell-based
[16] = biological target: T2, Trace amine-associated receptor 1; test: Fluorescence-based cell-based high throughput dose response assay to identify agonists of the human trace amine associated receptor 1 (TAAR1).; format: functional
cells [17] = format: functional, cell-based; remark: listed apart in the source

Chain of Adenosylmethionine-8-amino-7-oxononanoate aminotransferase (P9WQ81 whole entry, the tested form may be a part): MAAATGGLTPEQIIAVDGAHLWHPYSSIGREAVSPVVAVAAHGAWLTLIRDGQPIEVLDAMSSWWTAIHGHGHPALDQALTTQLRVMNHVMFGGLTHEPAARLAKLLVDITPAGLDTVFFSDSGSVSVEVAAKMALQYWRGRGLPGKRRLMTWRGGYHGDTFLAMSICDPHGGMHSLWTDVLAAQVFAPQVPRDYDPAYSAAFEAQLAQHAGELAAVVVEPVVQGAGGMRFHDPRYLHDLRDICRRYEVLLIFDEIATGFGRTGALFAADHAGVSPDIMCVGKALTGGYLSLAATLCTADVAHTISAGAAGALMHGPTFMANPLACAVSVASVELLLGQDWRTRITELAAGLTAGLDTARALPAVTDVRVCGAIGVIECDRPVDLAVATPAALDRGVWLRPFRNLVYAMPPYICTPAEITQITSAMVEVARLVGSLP
Chain of Tyrosine-protein phosphatase non-receptor type 5 (P54829 whole entry): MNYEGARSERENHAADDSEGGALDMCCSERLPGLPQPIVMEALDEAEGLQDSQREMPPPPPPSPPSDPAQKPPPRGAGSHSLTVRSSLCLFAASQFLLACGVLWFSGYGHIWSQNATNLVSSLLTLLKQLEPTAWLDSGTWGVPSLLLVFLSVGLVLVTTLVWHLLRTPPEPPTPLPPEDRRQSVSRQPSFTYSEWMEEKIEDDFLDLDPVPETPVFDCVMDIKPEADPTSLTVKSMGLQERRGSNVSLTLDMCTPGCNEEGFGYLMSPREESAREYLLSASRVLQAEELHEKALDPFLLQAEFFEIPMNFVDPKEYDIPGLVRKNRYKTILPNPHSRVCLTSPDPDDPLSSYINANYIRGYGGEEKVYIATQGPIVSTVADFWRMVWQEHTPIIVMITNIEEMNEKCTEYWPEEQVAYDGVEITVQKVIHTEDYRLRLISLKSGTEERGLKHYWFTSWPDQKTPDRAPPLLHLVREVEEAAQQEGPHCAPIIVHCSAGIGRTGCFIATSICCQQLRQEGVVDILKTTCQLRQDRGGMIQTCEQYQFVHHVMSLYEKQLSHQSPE
Chain of ALK tyrosine kinase receptor (Q9UM73 whole entry): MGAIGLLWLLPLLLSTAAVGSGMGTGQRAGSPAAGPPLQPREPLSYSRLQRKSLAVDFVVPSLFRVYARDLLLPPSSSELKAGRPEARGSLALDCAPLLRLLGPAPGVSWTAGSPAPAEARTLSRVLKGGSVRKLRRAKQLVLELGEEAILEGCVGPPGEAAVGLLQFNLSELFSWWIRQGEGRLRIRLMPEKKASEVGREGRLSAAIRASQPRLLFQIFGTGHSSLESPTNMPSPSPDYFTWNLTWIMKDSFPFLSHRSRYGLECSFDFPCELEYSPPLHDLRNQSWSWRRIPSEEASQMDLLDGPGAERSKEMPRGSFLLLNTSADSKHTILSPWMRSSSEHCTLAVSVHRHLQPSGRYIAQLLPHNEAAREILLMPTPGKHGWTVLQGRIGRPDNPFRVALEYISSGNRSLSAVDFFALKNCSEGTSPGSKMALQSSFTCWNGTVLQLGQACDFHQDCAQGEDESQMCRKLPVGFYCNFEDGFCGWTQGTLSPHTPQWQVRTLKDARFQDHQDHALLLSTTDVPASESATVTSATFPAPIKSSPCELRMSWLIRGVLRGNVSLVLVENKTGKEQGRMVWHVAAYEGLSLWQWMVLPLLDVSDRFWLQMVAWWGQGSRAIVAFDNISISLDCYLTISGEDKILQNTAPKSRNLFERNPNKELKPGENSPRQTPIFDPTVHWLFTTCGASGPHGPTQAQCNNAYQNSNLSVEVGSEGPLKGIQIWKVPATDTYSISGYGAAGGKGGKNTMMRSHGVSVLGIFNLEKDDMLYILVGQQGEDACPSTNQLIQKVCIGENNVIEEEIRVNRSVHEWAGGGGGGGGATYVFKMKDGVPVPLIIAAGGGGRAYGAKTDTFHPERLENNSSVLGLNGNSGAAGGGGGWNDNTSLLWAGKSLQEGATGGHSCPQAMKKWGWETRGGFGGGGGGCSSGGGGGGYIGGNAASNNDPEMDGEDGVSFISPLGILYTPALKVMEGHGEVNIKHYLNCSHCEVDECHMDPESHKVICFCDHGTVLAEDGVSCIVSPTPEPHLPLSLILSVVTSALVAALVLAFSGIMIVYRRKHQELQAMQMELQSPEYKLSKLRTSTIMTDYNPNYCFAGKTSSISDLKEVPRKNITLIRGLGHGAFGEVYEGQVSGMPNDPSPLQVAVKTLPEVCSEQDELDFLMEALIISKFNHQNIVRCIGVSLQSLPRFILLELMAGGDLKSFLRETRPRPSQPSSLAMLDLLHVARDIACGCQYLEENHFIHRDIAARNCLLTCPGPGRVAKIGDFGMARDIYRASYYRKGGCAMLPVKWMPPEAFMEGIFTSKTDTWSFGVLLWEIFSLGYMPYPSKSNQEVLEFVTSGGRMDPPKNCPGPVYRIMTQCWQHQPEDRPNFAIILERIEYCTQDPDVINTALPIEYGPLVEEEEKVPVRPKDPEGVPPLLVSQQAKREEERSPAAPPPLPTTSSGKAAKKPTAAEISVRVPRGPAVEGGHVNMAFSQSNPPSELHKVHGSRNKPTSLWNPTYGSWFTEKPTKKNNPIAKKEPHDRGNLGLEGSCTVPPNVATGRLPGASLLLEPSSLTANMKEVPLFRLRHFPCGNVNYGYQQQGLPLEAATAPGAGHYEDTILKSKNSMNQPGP
Chain of Tyrosine-protein phosphatase non-receptor type 11 (Q06124 whole entry): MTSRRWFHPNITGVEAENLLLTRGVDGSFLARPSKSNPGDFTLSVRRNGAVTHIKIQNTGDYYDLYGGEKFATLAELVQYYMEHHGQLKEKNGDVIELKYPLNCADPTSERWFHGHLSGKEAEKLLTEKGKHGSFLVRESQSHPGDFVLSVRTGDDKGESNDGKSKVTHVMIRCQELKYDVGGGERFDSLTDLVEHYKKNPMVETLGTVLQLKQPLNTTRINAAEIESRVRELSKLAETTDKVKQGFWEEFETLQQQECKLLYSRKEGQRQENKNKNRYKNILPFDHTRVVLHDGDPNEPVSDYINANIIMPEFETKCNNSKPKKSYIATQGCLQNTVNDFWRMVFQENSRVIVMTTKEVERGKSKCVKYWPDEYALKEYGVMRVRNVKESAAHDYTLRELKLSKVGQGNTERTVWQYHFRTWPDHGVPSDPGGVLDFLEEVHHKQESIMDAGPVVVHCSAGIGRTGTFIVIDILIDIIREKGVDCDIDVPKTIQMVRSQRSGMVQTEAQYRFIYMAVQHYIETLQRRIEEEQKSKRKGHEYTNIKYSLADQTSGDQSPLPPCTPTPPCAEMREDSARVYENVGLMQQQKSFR
Chain of Cyclin-dependent kinase 19 (Q9BWU1 whole entry): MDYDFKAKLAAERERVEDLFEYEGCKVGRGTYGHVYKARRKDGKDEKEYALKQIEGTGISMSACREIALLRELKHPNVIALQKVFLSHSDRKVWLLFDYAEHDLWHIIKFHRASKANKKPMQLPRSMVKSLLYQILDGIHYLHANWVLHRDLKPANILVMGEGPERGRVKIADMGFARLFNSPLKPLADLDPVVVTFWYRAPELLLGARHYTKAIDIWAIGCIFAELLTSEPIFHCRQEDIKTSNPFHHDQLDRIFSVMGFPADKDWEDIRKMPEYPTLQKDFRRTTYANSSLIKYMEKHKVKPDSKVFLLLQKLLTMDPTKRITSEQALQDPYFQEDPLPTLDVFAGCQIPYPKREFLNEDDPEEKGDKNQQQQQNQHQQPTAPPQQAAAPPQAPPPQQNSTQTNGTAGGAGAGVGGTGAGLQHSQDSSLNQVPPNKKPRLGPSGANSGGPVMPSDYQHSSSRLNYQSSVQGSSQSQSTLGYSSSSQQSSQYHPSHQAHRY
Chain of Dual specificity protein phosphatase 3 (P51452 whole entry): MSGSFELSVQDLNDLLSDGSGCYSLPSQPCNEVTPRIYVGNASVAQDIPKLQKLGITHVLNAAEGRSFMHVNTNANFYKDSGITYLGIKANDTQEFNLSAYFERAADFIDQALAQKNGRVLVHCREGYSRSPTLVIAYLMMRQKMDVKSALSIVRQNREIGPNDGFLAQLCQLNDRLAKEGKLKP

Compound: COC(=O)[C@@H]1COC(c2ccc(F)cc2F)=N1
- EC50 [1]: > 100 µM (inactive)

Compound: Cc1nn(-c2nc3ccccc3[nH]2)c(O)c1C1OC(=O)c2ccccc21 (configuration not stated)
- Ki [2]: 200 nM (active)
- Ki [3]: 2 µM (active)

Compound: N#C[C@H]1[C@@H](c2ccccc2)[C@@H](CO)N1C(=O)Nc1cccc(F)c1
- AC50 [4]: 1.76 µM (active)

Compound: C[C@H]1CNC(=O)c2c(C(=O)N3CCN(C(=O)OC(C)(C)C)CC3)ncn21
- AC50 [5]: 2.18 µM (active)
- AC50 [6]: 805 nM (active)
- AC50 [7]: 4.38 µM (active)
- AC50 [8]: 3.02 µM (active)
- AC50 [9]: 47.9 µM (active)

Compound: COc1ccc(S(=O)(=O)N(C)C[C@H]2Oc3ncc(/C=C/c4ccccc4)cc3C(=O)N([C@H](C)CO)C[C@@H]2C)cc1
- AbsAC35 [10]: 45.64 µM

Compound: NS(=O)(=O)c1ccc(N/C(S)=N\CCc2ccccc2)cc1
- IC50 [11]: > 80 µM (inactive)
- IC50 [12]: 5.84 µM (active)
- IC50 [13]: 7.06 µM (active)
- IC50 [14]: 3.17 µM (active)
- EC50 (cells [15]): > 29.9 µM (inactive)
- EC50 [16]: 2.56 µM (active)
- IC50 (cells [17]): > 29.9 µM (inactive)
